# Measurements as given in paper PMC5218480 (PLoS ONE, 2017).
# Test system: MV-4-11 cells
# Experiment: Gene expression microarray analysis (Affymetrix PrimeView) and GSEA
# Format: cell-based, human
# Set-up: RFU PODN (11730768_x_at) / Fold change /veh PODN (11730768_x_at) / RFU LINC00158 (11744669_a_at) / Fold change /veh LINC00158 (11744669_a_at) / RFU DUSP10 (11751237_a_at) / Fold change /veh DUSP10 (11751237_a_at) / RFU ID3 (11757404_x_at) / Fold change /veh ID3 (11757404_x_at) / RFU PLEKHG5 (11737974_s_at) / Fold change /veh PLEKHG5 (11737974_s_at) / RFU LRRC4B (11730491_at) / Fold change /veh LRRC4B (11730491_at) / RFU GIMAP4 (11747438_a_at) / Fold change /veh GIMAP4 (11747438_a_at) / RFU KRT8 (11758183_x_at) / Fold change /veh KRT8 (11758183_x_at) / RFU CNN1 (11734310_a_at) / Fold change /veh CNN1 (11734310_a_at) / RFU VPS37D (11726825_at) / Fold change /veh VPS37D (11726825_at) / RFU C10orf10 (11716522_x_at) / Fold change /veh C10orf10 (11716522_x_at) / RFU KIR2DL2 /// KIR2DL4 /// KIR2DL5A /// KIR2DL5B /// KIR2DS1 /// KIR2DS2 /// KIR2DS3 /// KIR2DS4 /// KIR3DL3 /// KIR3DL3 /// KIR3DS1 (11738374_at) / Fold change /veh KIR2DL2 /// KIR2DL4 /// KIR2DL5A /// KIR2DL5B /// KIR2DS1 /// KIR2DS2 /// KIR2DS3 /// KIR2DS4 /// KIR3DL3 /// KIR3DL3 /// KIR3DS1 (11738374_at) / RFU C1QL1 (11718748_at) / Fold change /veh C1QL1 (11718748_at) / RFU TMPRSS4 (11747572_a_at) / Fold change /veh TMPRSS4 (11747572_a_at) / RFU HAMP (11756126_x_at) / Fold change /veh HAMP (11756126_x_at) / RFU RNFT2 (11725882_a_at) / Fold change /veh RNFT2 (11725882_a_at) / RFU NR4A2 (11747474_a_at) / Fold change /veh NR4A2 (11747474_a_at) / RFU ABCC12 (11746883_a_at) / Fold change /veh ABCC12 (11746883_a_at) / RFU TMEM136 (11760407_x_at) / Fold change /veh TMEM136 (11760407_x_at) / RFU CLDN22 /// WWC2 (11732394_at) / Fold change /veh CLDN22 /// WWC2 (11732394_at) / RFU HLA-DPB1 (11760878_x_at) / Fold change /veh HLA-DPB1 (11760878_x_at) / RFU SPINT1 (11716480_a_at) / Fold change /veh SPINT1 (11716480_a_at) / RFU GAP43 (11754022_s_at) / Fold change /veh GAP43 (11754022_s_at) / RFU A4GNT (11735810_at) / Fold change /veh A4GNT (11735810_at) / RFU PRB3 (11715151_x_at) / Fold change /veh PRB3 (11715151_x_at) / RFU TUBB4B (11761932_at) / Fold change /veh TUBB4B (11761932_at) / RFU CAPN14 (11732068_a_at) / Fold change /veh CAPN14 (11732068_a_at) / RFU TMCC2 (11721928_a_at) / Fold change /veh TMCC2 (11721928_a_at) / RFU IRGQ (11745062_a_at) / Fold change /veh IRGQ (11745062_a_at) / RFU FAM174B (11720279_a_at) / Fold change /veh FAM174B (11720279_a_at) / RFU TMPRSS4 (11748680_a_at) / Fold change /veh TMPRSS4 (11748680_a_at) / RFU FAM212B (11763350_a_at) / Fold change /veh FAM212B (11763350_a_at) / RFU PLEKHG5 (11743358_a_at) / Fold change /veh PLEKHG5 (11743358_a_at) / RFU ZSCAN30 (11745921_a_at) / Fold change /veh ZSCAN30 (11745921_a_at) / RFU CMKLR1 (11741424_a_at) / Fold change /veh CMKLR1 (11741424_a_at) / RFU LOC101060620 /// MAPK8IP1 (11723275_at) / Fold change /veh LOC101060620 /// MAPK8IP1 (11723275_at) / RFU SPTSSB (11747773_x_at) / Fold change /veh SPTSSB (11747773_x_at) / RFU PRSS12 (11739890_at) / Fold change /veh PRSS12 (11739890_at) / RFU BIN1 (11741810_x_at) / Fold change /veh BIN1 (11741810_x_at) / RFU WNT11 (11732464_a_at) / Fold change /veh WNT11 (11732464_a_at) / RFU C10orf10 (11716521_a_at) / Fold change /veh C10orf10 (11716521_a_at) / RFU C5orf56 (11738089_at) / Fold change /veh C5orf56 (11738089_at) / RFU CYB561 (11721691_x_at) / Fold change /veh CYB561 (11721691_x_at) / RFU ANKRD19P (11752326_a_at) / Fold change /veh ANKRD19P (11752326_a_at) / RFU OR2T12 /// OR2T33 /// OR2T8 (11738714_s_at) / Fold change /veh OR2T12 /// OR2T33 /// OR2T8 (11738714_s_at) / RFU VCAN (11748164_a_at) / Fold change /veh VCAN (11748164_a_at) / RFU JSRP1 (11732532_at) / Fold change /veh JSRP1 (11732532_at) / RFU KRTAP10-11 (11738290_x_at) / Fold change /veh KRTAP10-11 (11738290_x_at) / RFU MYO3A (11730013_a_at) / Fold change /veh MYO3A (11730013_a_at) / RFU EBF3 (11725865_a_at) / Fold change /veh EBF3 (11725865_a_at) / RFU CAMK2N1 (11719241_x_at) / Fold change /veh CAMK2N1 (11719241_x_at) / RFU C5orf56 (11738088_a_at) / Fold change /veh C5orf56 (11738088_a_at) / RFU OLFML3 (11715873_a_at) / Fold change /veh OLFML3 (11715873_a_at) / RFU LOC100653217 /// NTM (11731650_a_at) / Fold change /veh LOC100653217 /// NTM (11731650_a_at) / RFU MAPK11 (11762145_a_at) / Fold change /veh MAPK11 (11762145_a_at) / RFU FIZ1 (11724087_x_at) / Fold change /veh FIZ1 (11724087_x_at) / RFU OASL (11726364_x_at) / Fold change /veh OASL (11726364_x_at) / RFU SOX15 (11748057_x_at) / Fold change /veh SOX15 (11748057_x_at) / RFU CD79A (11719716_a_at) / Fold change /veh CD79A (11719716_a_at) / RFU HIST1H1D (11736915_at) / Fold change /veh HIST1H1D (11736915_at) / RFU CASKIN2 (11723855_a_at) / Fold change /veh CASKIN2 (11723855_a_at) / RFU LOC730098 (11760151_x_at) / Fold change /veh LOC730098 (11760151_x_at) / RFU OR4N2 (11742367_at) / Fold change /veh OR4N2 (11742367_at) / RFU PRRT2 (11749266_a_at) / Fold change /veh PRRT2 (11749266_a_at) / RFU SNX32 (11753110_a_at) / Fold change /veh SNX32 (11753110_a_at) / RFU CDHR5 (11726645_a_at) / Fold change /veh CDHR5 (11726645_a_at) / RFU RCAN1 (11760418_a_at) / Fold change /veh RCAN1 (11760418_a_at) / RFU FAM167A (11723789_a_at) / Fold change /veh FAM167A (11723789_a_at) / RFU FAM26E (11764081_at) / Fold change /veh FAM26E (11764081_at) / RFU ISYNA1 (11749810_s_at) / Fold change /veh ISYNA1 (11749810_s_at) / RFU ACY1 (11761880_at) / Fold change /veh ACY1 (11761880_at) / RFU 11764098_at / Fold change /veh 11764098_at / RFU SAMD14 (11745864_x_at) / Fold change /veh SAMD14 (11745864_x_at) / RFU NPB (11741838_a_at) / Fold change /veh NPB (11741838_a_at) / RFU TMPRSS6 (11731388_a_at) / Fold change /veh TMPRSS6 (11731388_a_at) / RFU KRTAP10-2 (11738614_at) / Fold change /veh KRTAP10-2 (11738614_at) / RFU ARHGAP8 /// PRR5-ARHGAP8 (11727945_x_at) / Fold change /veh ARHGAP8 /// PRR5-ARHGAP8 (11727945_x_at) / RFU KRTAP5-7 /// NADSYN1 (11734609_at) / Fold change /veh KRTAP5-7 /// NADSYN1 (11734609_at) / RFU RASL12 (11751679_a_at) / Fold change /veh RASL12 (11751679_a_at) / RFU CDKN2B (11736163_a_at) / Fold change /veh CDKN2B (11736163_a_at) / RFU PRF1 (11729649_at) / Fold change /veh PRF1 (11729649_at) / RFU, ZNF638 /// ZNF638-IT1 / Fold change vs veh, ZNF638 /// ZNF638-IT1 / RFU, PANK3 / Fold change vs veh, PANK3 / RFU, SH3YL1 / Fold change vs veh, SH3YL1 / RFU, ZEB2 / Fold change vs veh, ZEB2 / RFU, NRIP1 / Fold change vs veh, NRIP1 / RFU, PTTG1IP / Fold change vs veh, PTTG1IP / RFU, CAPN2 / Fold change vs veh, CAPN2 / RFU, MED14 / Fold change vs veh, MED14 / RFU, SNORA58 / Fold change vs veh, SNORA58 / RFU, C1orf63 / Fold change vs veh, C1orf63 / RFU, LRRFIP1 / Fold change vs veh, LRRFIP1 / RFU, NDUFAF7 / Fold change vs veh, NDUFAF7 / RFU, SLC12A2 / Fold change vs veh, SLC12A2 / RFU, IBTK / Fold change vs veh, IBTK / RFU, ESF1 / Fold change vs veh, ESF1 / Fold change vs veh, TMEM50B / RFU, TAOK1 / Fold change vs veh, TAOK1 / RFU, ACBD3 / Fold change vs veh, ACBD3 / RFU, TMA16 / Fold change vs veh, TMA16 / RFU, RWDD3 / Fold change vs veh, RWDD3 / RFU, BCAT1 / Fold change vs veh, BCAT1 / RFU, EDEM3 / Fold change vs veh, EDEM3 / RFU, TMEM33 / Fold change vs veh, TMEM33 / RFU, WDR75 / Fold change vs veh, WDR75 / RFU, AHCTF1 / Fold change vs veh, AHCTF1 / RFU, TFRC / Fold change vs veh, TFRC / RFU, ZDHHC17 / Fold change vs veh, ZDHHC17 / RFU, NOM1 / Fold change vs veh, NOM1 / RFU, ARL8B / Fold change vs veh, ARL8B / RFU, ZBTB11 / Fold change vs veh, ZBTB11 / RFU, TAMM41 / Fold change vs veh, TAMM41 / RFU, KIAA1704 /// LOC100996395 / Fold change vs veh, KIAA1704 /// LOC100996395 / RFU, ING1 / Fold change vs veh, ING1 / RFU, TRMT61B / Fold change vs veh, TRMT61B / RFU, FUBP3 / Fold change vs veh, FUBP3 / RFU, TP53 / Fold change vs veh, TP53 / RFU, TNKS2 / Fold change vs veh, TNKS2 / RFU, ZFP14 / Fold change vs veh, ZFP14 / RFU, ACTR2 / Fold change vs veh, ACTR2 / RFU, PPP3R1 / Fold change vs veh, PPP3R1 / RFU, PIK3R1 / Fold change vs veh, PIK3R1 / RFU, HNRNPA1 / Fold change vs veh, HNRNPA1 / RFU, RNF170 / Fold change vs veh, RNF170 / RFU, ZNF28 / Fold change vs veh, ZNF28 / RFU, RNGTT / Fold change vs veh, RNGTT / RFU, OGT / Fold change vs veh, OGT / RFU, BRD1 / Fold change vs veh, BRD1 / RFU, MARS / Fold change vs veh, MARS / RFU, ZNF655 / Fold change vs veh, ZNF655 / RFU, FAHD1 / Fold change vs veh, FAHD1 / RFU, BDP1 / Fold change vs veh, BDP1 / RFU, LRRCC1 / Fold change vs veh, LRRCC1 / RFU, ARID1A / Fold change vs veh, ARID1A / RFU, ZNF146 / Fold change vs veh, ZNF146 / RFU, ZNF330 / Fold change vs veh, ZNF330 / RFU, GPN3 / Fold change vs veh, GPN3 / RFU, C9orf123 / Fold change vs veh, C9orf123 / RFU, N4BP2L2 / Fold change vs veh, N4BP2L2 / RFU, ARFIP1 / Fold change vs veh, ARFIP1 / RFU, FAM179B / Fold change vs veh, FAM179B / RFU, BCL10 / Fold change vs veh, BCL10 / RFU, UHRF1BP1L / Fold change vs veh, UHRF1BP1L / RFU, BET1 / Fold change vs veh, BET1 / RFU, CNOT2 / Fold change vs veh, CNOT2 / RFU, ZNF268 / Fold change vs veh, ZNF268 / Fold change vs veh, ZNF507 / RFU, DGCR2 / Fold change vs veh, DGCR2 / RFU, WDSUB1 / Fold change vs veh, WDSUB1 / Fold change vs veh, HSP90B1 /// MIR3652 / RFU, ADSS / Fold change vs veh, ADSS / RFU, GK / Fold change vs veh, GK / RFU, ZNF148 / Fold change vs veh, ZNF148 / RFU, TAF9 / Fold change vs veh, TAF9 / RFU, SLC1A5 / Fold change vs veh, SLC1A5 / RFU, SLMO2 / Fold change vs veh, SLMO2 / RFU, ABCC4 / Fold change vs veh, ABCC4 / RFU, LOC101060439 /// RAP1B / Fold change vs veh, LOC101060439 /// RAP1B / RFU, RFX7 / Fold change vs veh, RFX7 / RFU, GTPBP10 / Fold change vs veh, GTPBP10 / RFU, CNEP1R1 / Fold change vs veh, CNEP1R1 / RFU, BIVM-ERCC5 /// ERCC5 / Fold change vs veh, BIVM-ERCC5 /// ERCC5 / RFU, ILF3 / Fold change vs veh, ILF3 / RFU 11762660_at / Fold change /veh 11762660_at / RFU VCAN (11757783_s_at) / Fold change /veh VCAN (11757783_s_at) / RFU DDX43 (11728927_at) / Fold change /veh DDX43 (11728927_at) / RFU KRT8 (11758188_x_at) / Fold change /veh KRT8 (11758188_x_at) / RFU NKD1 (11759106_at) / Fold change /veh NKD1 (11759106_at) / RFU SRD5A1 (11742802_a_at) / Fold change /veh SRD5A1 (11742802_a_at) / RFU TPSAB1 /// TPSB2 (11721975_s_at) / Fold change /veh TPSAB1 /// TPSB2 (11721975_s_at) / RFU GSTM3 (11746129_a_at) / Fold change /veh GSTM3 (11746129_a_at) / RFU IL23R (11737362_x_at) / Fold change /veh IL23R (11737362_x_at) / RFU TMEM51 (11727254_a_at) / Fold change /veh TMEM51 (11727254_a_at) / RFU PIWIL2 (11732686_x_at) / Fold change /veh PIWIL2 (11732686_x_at) / RFU ORM1 (11744905_x_at) / Fold change /veh ORM1 (11744905_x_at) / RFU CCDC152 (11743942_at) / Fold change /veh CCDC152 (11743942_at) / RFU ECM1 (11717891_a_at) / Fold change /veh ECM1 (11717891_a_at) / RFU IL23R (11748794_a_at) / Fold change /veh IL23R (11748794_a_at) / RFU TNFAIP8L3 (11732012_x_at) / Fold change /veh TNFAIP8L3 (11732012_x_at) / RFU MBOAT4 (11741988_at) / Fold change /veh MBOAT4 (11741988_at) / RFU 11764193_at / Fold change /veh 11764193_at / RFU TMEM53 (11763286_at) / Fold change /veh TMEM53 (11763286_at) / RFU MAGEB2 (11727129_at) / Fold change /veh MAGEB2 (11727129_at) / RFU TMEM200A (11744735_a_at) / Fold change /veh TMEM200A (11744735_a_at) / RFU CCDC152 (11751479_a_at) / Fold change /veh CCDC152 (11751479_a_at) / RFU FAM211A (11726209_a_at) / Fold change /veh FAM211A (11726209_a_at) / RFU RGS16 (11746705_a_at) / Fold change /veh RGS16 (11746705_a_at) / RFU VCAN (11755009_s_at) / Fold change /veh VCAN (11755009_s_at) / RFU RHOB (11743442_s_at) / Fold change /veh RHOB (11743442_s_at) / RFU RGS16 (11720943_a_at) / Fold change /veh RGS16 (11720943_a_at) / RFU RGS16 (11720944_at) / Fold change /veh RGS16 (11720944_at) / RFU, VPS4B / Fold change vs veh, VPS4B / RFU, CREB1 / Fold change vs veh, CREB1 / RFU, DNAJC13 / Fold change vs veh, DNAJC13 / RFU, GNAQ / Fold change vs veh, GNAQ / RFU, CDK5R1 / Fold change vs veh, CDK5R1 / RFU, ZRANB3 / Fold change vs veh, ZRANB3 / RFU, CUL4A / Fold change vs veh, CUL4A / RFU, CCNY / Fold change vs veh, CCNY / RFU, UFL1 / Fold change vs veh, UFL1 / RFU, COG3 / Fold change vs veh, COG3 / RFU, DIAPH2 / Fold change vs veh, DIAPH2 / RFU, SKA2 / Fold change vs veh, SKA2 / RFU, AFF3 / Fold change vs veh, AFF3 / RFU, LMF1 / Fold change vs veh, LMF1 / RFU, IPO11 / Fold change vs veh, IPO11 / RFU, DFFB / Fold change vs veh, DFFB / RFU, FOXP1 / Fold change vs veh, FOXP1 / RFU, CARD8 / Fold change vs veh, CARD8 / RFU, STRN3 / Fold change vs veh, STRN3 / RFU, ADK / Fold change vs veh, ADK / RFU, RASSF2 / Fold change vs veh, RASSF2 / RFU, WIPF1 / Fold change vs veh, WIPF1 / RFU, LARP1B / Fold change vs veh, LARP1B / RFU, RASA1 / Fold change vs veh, RASA1 / RFU, RB1 / Fold change vs veh, RB1 / RFU, PPFIA1 / Fold change vs veh, PPFIA1 / RFU, MAT2A / Fold change vs veh, MAT2A / RFU, CCT5 / Fold change vs veh, CCT5 / RFU, WDR92 / Fold change vs veh, WDR92 / RFU, CUX1 / Fold change vs veh, CUX1 / RFU, TTC7A / Fold change vs veh, TTC7A / RFU, TMEM135 / Fold change vs veh, TMEM135 / RFU, DEPTOR / Fold change vs veh, DEPTOR / RFU, CPM / Fold change vs veh, CPM / RFU, DNAJB6 / Fold change vs veh, DNAJB6 / RFU, CACNA2D3 / Fold change vs veh, CACNA2D3 / RFU, DTX4 / Fold change vs veh, DTX4 / RFU, TFCP2 / Fold change vs veh, TFCP2 / RFU, GMCL1 /// GMCL1P1 / Fold change vs veh, GMCL1 /// GMCL1P1 / RFU, AEBP2 / Fold change vs veh, AEBP2 / RFU, SNHG1 /// SNORD22 /// SNORD25 /// SNORD26 /// SNORD27 /// SNORD28 /// SNORD29 /// SNORD31 / Fold change vs veh, SNHG1 /// SNORD22 /// SNORD25 /// SNORD26 /// SNORD27 /// SNORD28 /// SNORD29 /// SNORD31 / Fold change (Aza/veh), C12orf56 (ProbeSet 11735607_a_at) / Fold change (ACY-1035/veh), C12orf56 (ProbeSet 11735607_a_at) / Fold change (Aza/veh), FGFR1OP (ProbeSet 11751329_s_at) / Fold change (ACY-1035/veh), FGFR1OP (ProbeSet 11751329_s_at) / Fold change (Aza/veh), VPS36 (ProbeSet 11739960_a_at) / Fold change (ACY-1035/veh), VPS36 (ProbeSet 11739960_a_at) / RFU SYPL1 (11715823_x_at) / Fold change /veh SYPL1 (11715823_x_at) / RFU IGFBP7 (11715501_s_at) / Fold change /veh IGFBP7 (11715501_s_at) / RFU REEP3 (11722064_at) / Fold change /veh REEP3 (11722064_at) / RFU IGLL1 (11728026_x_at) / Fold change /veh IGLL1 (11728026_x_at): dose or concentration left out as unconfirmed
# Conditions: MV-4-11 cells, 48 hours
structure (smiles),measurement,value
Nc1ccc(-c2cccs2)cc1NC(=O)c1ccc2c(c1)cc(C1CC1)n2CCN1CCOCC1 [ACY-1035],Fold change /veh CDKN2B (11736163_a_at),1.20
